Experimental data: US20220280513A1, “ENHANCING THE ANTIVIRAL EFFICACY OF RNA VIRUS INHIBITION BY COMBINATION WITH MODULATORS OF PYRIMIDINE METABOLISM” (The Board of Trustees of the Leland Stanford Junior …, priority 2019, published 2022)
Like-named read-outs stand apart in the source and are kept apart here.

Columns and labels:
recombinant human UCK2 = target: T1, recombinant human UCK2 (Homo sapiens, UniProt Q9BZX2); experiment: In vitro enzyme activity assay with recombinant human UCK2 (PK/LDH-coupled, UV 340 nm); type: biochemical; conditions: for UCK2 substrate or not (ATP consumption): 250 μM analog in the presence of 50 μM uridine
T1 construct: 6xHis (C); made in house; host or cells: E. coli BL21(DE3)
T1 sequence (Q9BZX2 1-261): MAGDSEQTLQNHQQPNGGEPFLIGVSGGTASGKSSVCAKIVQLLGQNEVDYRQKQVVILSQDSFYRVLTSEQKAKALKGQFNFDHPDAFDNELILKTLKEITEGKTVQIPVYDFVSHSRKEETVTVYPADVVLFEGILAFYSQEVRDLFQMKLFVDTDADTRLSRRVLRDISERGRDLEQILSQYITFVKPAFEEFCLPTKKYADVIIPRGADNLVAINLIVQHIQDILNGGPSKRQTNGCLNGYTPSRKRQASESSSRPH
From the text: (§1) In order to guide our SAR studies, we developed an enzymatic assay to evaluate the inhibitory effect of each CPU analog against recombinant human UCK2, which was expressed and purified in E. coli. A continuous assay system was optimized by coupling UCK2 activity to the pyruvate kinase (PK) reaction, which in turn was coupled to lactate dehydrogenase (LDH). Overall reaction progress was continuously monitored by detecting the UV absorption change at 340 nm, which was correlated with the ATP consumption by UCK2. The effect of 250 μM of each CPU analog on UCK2 activity was evaluated in the presence of 50 μM uridine. […] We then individually measured the steady state kinetic parameters of UCK2 using uridine, CPU and 5-F-CPU as substrates. Their KM values were 86, 25, and 41 μM, and their kcat/KM values were 2.6×10^5, 1.5×10^5, and 7.3×10^4 s^−1 M^−1 (FIG. 5B).
(§2) Cloning, expression and purification of recombinant human UCK2 and CMPK1: Uridine cytidine kinase 2 (UCK2) was cloned into the pET-21a(+) vector using Ndel and Notl as restriction sites. […] The resulting plasmid was transformed into E. coli BL21(DE3) cells by electroporation, recovered in SOC at 37° C. for 1 h and plated onto LB agar plates with kanamycin overnight at 37° C. A single, isolated colony was inoculated into 30 mL LB supplemented with 50 μg/mL kanamycin and grown at 37° C. with shaking for 15 h. The next day, these cells were used to inoculate 1 L autoclaved LB with 50 μg/mL kanamycin. The flask was shaken at 37° C. When an optical density (OD600) of 0.7 was reached, protein expression was induced with 0.5 mM isopropyl β-D-1-thiogalactopyranoside (IPTG). The temperature was changed to 18° C. and flasks were shaken for an additional 15 h. The cell pellets were collected by spinning the media at 5000 rpm for 10 min. The pellets obtained were frozen by liquid nitrogen and stored in −80° C. for protein purification. Cell pellets were thawed and resuspended in lysis buffer containing Tris (40 mM, pH 7.5), NaCl (10 mM), imidazole (10 mM), DTT (1 mM). Cells were lysed by sonication and centrifuged at 25,000 g for 1 h. The supernatant was incubated with a slurry of Ni-NTA resin for 1 h at 4° C. and loaded onto a column. The nickel column wash buffer was Tris (40 mM, pH 7.5), NaCl (10 mM), DTT (1 mM) and each wash step contained increasing concentrations of imidazole (10, 50, or 250 mM). After SDS-PAGE confirmation of the protein fractions, protein was further purified using fast protein liquid chromatography (FPLC) using buffer A (50 mM Tris-HCl pH 8, 1 mM dithiothreitol (DTT), 10% glycerol) and elution buffer B (50 mM Tris-HCl pH 8, 1mM dithiothreitol (DTT), 10% glycerol with 500 mM NaCl) with changing gradient over a 20 minute from 2% to 100% Buffer B. FPLC eluents containing the protein was concentrated using Am icon centrifugal filter with 3K cut-off and the enzyme was stored in storage buffer (50 mM Tris-HCl pH 7.5, 10% glycerol). Human cytidine monophosphate kinase 1 (CMPK1) was purified as previously described (Deans et al., 2016).
(§3) In vitro enzyme activity assays with recombinant human UCK2: To continuously monitor reaction progress spectrophotometrically, ATP hydrolysis was coupled to NADH oxidation via pyruvate kinase (PK) and lactate dehydrogenase (LDH). Reactions were conducted at room temperature in 100 μL in 96-well plates (Greiner Bio-One, UV-Star, Half Area). Mixtures contained 20 mM HEPES (pH 7.2), 100 mM KCl, 2 mM MgCl2, 300 μM ATP, 0-500 μM uridine, 0-500 μM CPU analogs, 10 nM UCK2, 1 mM phosphoenolpyruvate, 500 μM NADH and 20 units/mL of PK and LDH. Progress was monitored in the linear region using a Biotek Synergy HT and kinetic and inhibition constants were determined using GraphPad Prism 7 (GraphPad Software).

DENV-2 virus = experiment: DENV antiviral assay, DENV-Luc replication in A549 cells (FIGS. 8 and 9); type: cell-based, dengue serotype 2 (DENV-2) strain 16681
Procedure: DENV-Luc reporter virus generation: The design of the pDENV-Luc infectious clone derived from dengue serotype 2 (DENV-2) strain 16681 was described in detail by Marceau et al (Marceau et al., 2016). The plasmid was linearized with Xbal and in vitro transcribed into the genomic RNA of DENV-Luc virus using the T7 Megascript Kit (Ambion) in the presence of m7G(5′)ppp(5′)G RNA Cap Structure Analog (NEB). 5 μg DENV-Luc RNA was electroporated into 2×10^6 Vero cells. The transfected cells were resuspended with Dulbecco's modified Eagle's medium (DMEM; Invitrogen) with 10% FBS and 100 U/ml penicillin-streptomycin and transferred into a T-175 flask incubated at 37° C. with 5% CO2. Supernatants were collected and replenished with fresh medium every 24 h from day 17 to 24 post-transfection, pooled together, clarified by centrifugation and stored in aliquots at −80° C. The amount of infectious DENV-Luc virus in the stock was titrated using the TCID50 assay and calculated by the Spearman & Kärber algorithm as described previously (Hierholzer and Killington, 1996).
DENV antiviral assays (For FIGS. 8 and 9): A549 cells were plated overnight at 5,000 cells/well in 96-well plates in complete DMEM and incubated for 24 h at 37° C. Cells were then treated with pyrimidine de novo synthesis inhibitors, and/or salvage inhibitors, and/or R1479 in DMEM supplemented with 20 μM uridine. Four hours after drug addition, cells were infected with DENV-2 virus at a MOI=0.1. After 72 h, DENV-Luc replication was monitored by the production of Renilla luciferase, which was measured using the Renilla-Glo Luciferase Assay System (Promega) according to the specifications of the manufacturer. For the accompanying cell viability assay, A549 cells were seeded at 5,000 cells/well in 96-well plates in complete DMEM and incubated for 24 h at 37° C. Cell were then treated with pyrimidine de novo synthesis inhibitors, and/or salvage inhibitors, and/or R1479 in DMEM supplemented with 20 μM uridine. Following 48 h treatment, cell viability was monitored by ATP levels, which was measured using the CellTiter-Glo Luciferase Assay System (Promega) according to the specifications of the manufacturer.

[1] = substrate: O=c1[nH]c(=O)n([C@@H]2C=C(CO)[C@@H](O)[C@H]2O)cc1F; experiment: In vitro enzyme activity assay with recombinant human UCK2 (PK/LDH-coupled, UV 340 nm); type: biochemical; conditions: other: steady state kinetic parameters of UCK2 with the compound as substrate
From the text: as §1, §2, §3

[2] = substrate: O=c1ccn([C@@H]2O[C@H](CO)[C@@H](O)[C@H]2O)c(=O)[nH]1; experiment: as above; type: biochemical; conditions: other: steady state kinetic parameters of UCK2 with the compound as substrate
From the text: as §1, §2, §3

[3] = substrate: O=c1ccn([C@@H]2C=C(CO)[C@@H](O)[C@H]2O)c(=O)[nH]1; experiment: as above; type: biochemical; conditions: other: steady state kinetic parameters of UCK2 with the compound as substrate
From the text: as §1, §2, §3

O=c1[nH]c(=O)n([C@@H]2C=C(CO)[C@@H](O)[C@H]2O)cc1F [5-F-CPU, 1-((1R,4R,5S)-4,5-dihydroxy-3-(hydroxymethyl)cyclopent-2-en-1-yl)-5-fluoropyrimidine-2,4(1H,3H)-dione]
UCK2 substrate or not (ATP consumption) (recombinant human UCK2): substrates of UCK2 | rate of UMP synthesis (recombinant human UCK2; added to assay mixture containing UCK2, uridine (50 μM) and ATP): dose-dependent decrease

CC1=C[C@@H](n2ccc(=O)[nH]c2=O)[C@H](O)[C@@H]1O [5′-deoxy-CPU, 1-((1R,4R,5S)-4,5-dihydroxy-3-methylcyclopent-2-en-1-yl)pyrimidine-2,4(1H,3H)-dione]
UCK2 substrate or not (ATP consumption) (recombinant human UCK2): inhibitors but not substrates | Ki (recombinant human UCK2; competitive inhibitors of UCK2, Lineweaver-Burk analysis): 230 µM

[N-]=[N+]=N[C@]1(CO)O[C@@H](n2ccc(N)nc2=O)[C@H](O)[C@@H]1O [R1479, 4′-azidocytidine]
influence of GSK983 alone on the antiviral activity of R1479 (DENV-2 virus; 1 μM GSK983 added, no CPU, 20 μM uridine): negligible influence | EC50 (DENV-2 virus; Dengue virus, DENV2, A549, 20 μM uridine, without GSK983 and CPU, read-out: EC50, inhibition of dengue virus replication, R1479 as single agent): ~35 µM | EC50 (DENV-2 virus; Dengue virus, DENV2, A549, in the presence of 250 μM CPU and 1 μM GSK983, 20 μM uridine, read-out: EC50 of R1479 in combination): ≤ 8 µM | EC50 (DENV-2 virus; in the presence of 250 μM CPU and 1 μM GSK983, 20 μM uridine, read-out: EC50 of R1479 in combination): ~8 µM

B1: recombinant human UCK2 (Homo sapiens) (protein)
chain: T1 sequence (Q9BZX2 1-261)
notes: 6xHis (C); made in house; host or cells: E. coli BL21(DE3)
Km [1]: 41 µM | kcat/Km [1]: 73000 M⁻¹ s⁻¹ | Km [2]: 86 µM | kcat/Km [2]: 260000 M⁻¹ s⁻¹ | Km [3]: 25 µM | kcat/Km [3]: 150000 M⁻¹ s⁻¹
